Measurements taken from patent publication US20070258972A1, “Combination of a Histone Deacetylase Inhibitor with a Death Receptor Ligand” (priority 2003, published 2007).

Columns and labels:
[1] = test system: c-FLIPL mRNA; experiment: RT-PCR assay for c-FLIP mRNA levels; format: cell-based; conditions: 8 hours
Description: Total RNA was isolated from cells utilizing a TRIZOL LS reagent (Invitrogen Carlsbad, Calif.). RT-PCR analysis was performed, as previously described. The RNA (1.0 μg) was reverse-transcribed into cDNA by using SuperScript II RT (Invitrogen Carlsbad, Calif.) according to the manufacturer's protocol. For the c-FLIP PCR, the primer sequences are as follows, forward primer: 5′-GCCCGAGCACCGAGACTACG-3′; and reverse primer: 5′-AGG GAC GGD GAG CTG TGA GAC TG-3′. β-actin forward primer: 5′-CTA CM TGA GCT GCG TGT GG-3′; and reverse primer: MG GM GGC TGG MG AGT GC. The PCR reaction containing 0.2 mM concentration of dATP, dCTP, dGTP, dTTP and 200 nM concentration of each c-FLIP primers and 50 nM of each β-actin primers, 1.5 mM of MgCl2, and 10×PCR buffer containing Tris-HCL (pH 8.0), 500 mM KCL and 1 U of Tag polymerase (Invitrogen Carlsbad, Calif.). The reaction is performed at 95° C. for 5 minutes, and is followed by 30 cycles of de-naturating at 95° C. for 45 seconds, annealing at 52° C. for 45 seconds and the extension at 72° C. for one minute. The PCR products are separated on a 2% agarose/eithidium bromide gel. The size of the amplified products was 395 bases pairs for the c-FLIP and 527 base pairs for β-actin product, respectively.

[2] = test system: Jurkat and SKW 6.4 cells; experiment: Apoptosis assessment by annexin-V staining, Jurkat and SKW 6.4 cells; format: cell-based, human; conditions: 10-200 nM, 24 hours; more in Jurkat than in SKW 6.4 cells
Description: After drug treatments, cells are resuspended in 100 μL of the staining solution containing annexin-V fluorescein and propidium iodide in a HEPES buffer (Annexin-V-FLUOS Staining Kit, Boehringer-Mannheim, and Indianapolis, Ind.). Following incubation at room temperature for 15 minutes, annexin V positive cells are estimated by flow cytometry, as previously described.

[3] = test system: p21WAF1 promoter DNA; experiment: ChIP assay, p21WAF1 promoter; format: cell-based, human; conditions: Jurkat and SKW 6.4 cells
Description: ChIP analysis was performed by a slight modification of a previously described method. Cells are incubated overnight at a density of 0.25×10^8 cells/ ml at 37° C. with 5% CO2. Next day, cells are cultured with 0, 50, 100 or 250 nM of LAQ 824 for 24 hours. Formaldehyde was then added to the cells to a final concentration of 1%, and the cells are gently shaken at room temperature for 10 minutes. Following this, the cells are pelleted, suspended in 1 mL of ice-cold PBS containing protease inhibitors (Complete, Boehringer Mannheim). Cells are again pelleted, re-suspended in 0.5 mL of SDS lysis buffer (1% SDS/1.0 mM EDTA/50 mM Tris.HCl, pH 8.1) and incubated on ice for 20 minutes. Lysates are sonicated with 15-second bursts. Debris was removed from samples by centrifugation for 20 minutes at 15,000×g at 4° C. An aliquot of the chromatin preparation (100 μL) was set aside and designated as Input Fraction. […] Immunoprecipitated DNA (both immunoprecipitation samples and Input) was recovered by phenol/chloroform extraction and ethanol precipitation and analyzed by PCR. […] The optimal reaction conditions for PCR are determined for each primer pair. […] The ratio between the immunoprecipitated DNA and Input DNA was calculated for each treatment and primer set. The fold increases after treatment with LAQ824 was calculated from the indicated ratio.

## O=C(/C=C/c1ccc(CN(CCO)CCc2c[nH]c3ccccc23)cc1)NO [LAQ824, N-hydroxy-3-[4-[[(2-hydroxyethyl)[2-(1H-indol-3-yl)ethyl]-amino]methyl]phenyl]-2E-2-propenamide]
[1]
  inhibition of the mRNA level of c-FLIPL: 75%
[2]
  apoptosis, positive staining for annexin V: induces apoptosis in a dose-dependent manner
[3]
  association of p21WAF1 promoter DNA with acetylated histones: increased
